Measured values reported in US12419305B2, “Antimicrobial compositions” (Firmenich SA, priority 2018, dated 2025).
Where two headings read alike, the source gives them in different places.

Key:
C. xerosis ATCC 373 = assay: BCT test (bacterial contact time), 120 s, log reduction / effect fraction; CI by Compusyn; type: cell-based; conditions: Corynebacterium xerosis, ATCC373, 2 min, contact 120 s, 25% EtOH; for log reduction at 0.25 % strength: dose 0.25% w/v; for log reduction at 0.3 % strength: dose 0.3% w/v
Method in brief: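 C. xerosis cells grown in BHI-TW80 at 37 °C to OD600 1.6 were exposed to ethanolic perfume compositions for 120 s. Viable counts (log CFU) came from serial dilution and OD600 growth after 37 °C incubation, giving log reduction versus ethanol control. CI was computed from concentrations and effect fractions, with <0.9 taken as synergy.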

S. haemolyticus 114126 = assay: as above; type: cell-based; conditions: Staphylococcus haemolyticus, 114126, 2 min, contact 120 s, 25% EtOH; for log reduction at 0.1 % strength: dose 0.1% w/v
Method in brief: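 S. haemolyticus 114126 (skin isolate), grown to OD600 1-2 in BHI-TW80 and resuspended at 1-5×10^8 CFU/mL, was mixed 1:1 with ethanolic perfume compositions or ethanol alone for 45, 60 or 120 s. Viable counts came from serial-dilution regrowth (37 °C, turbidity OD600), giving log reduction versus ethanol control; CI was computed from concentration–effect fraction pairs.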

S. aureus ATCC 6538 = assay: BCT test (bacterial contact time), 60 s, log reduction / effect fraction; CI by Compusyn; type: cell-based, Staphylococcus aureus; conditions: Staphylococcus aureus, ATCC6538, 1 min, 60 s, in 25% EtOH
Method in brief: (§1)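 Log-phase cultures (OD600 1-2) were resuspended in TSB at about 1×10^8 bacteria/mL and mixed 1:1 with ethanolic perfume combinations or single ingredients, five replicates each. After the stated contact time, serial dilutions were grown at 37° C and viable counts derived from OD600 turbidity; log reduction is versus ethanol control.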

[1] = system: Pseudomonas aeruginosa ATCC 15442; assay: as above; type: cell-based; conditions: Pseudomonas aeruginosa, ATCC15442, 1 min, BCT 60 s, in 25% EtOH; for log reduction at 0.125 % strength: Dose 0.125 % w/v
Method in brief: as §1

[2] = system: Salmonella enterica ATCC 10708; assay: as above; type: cell-based; conditions: Salmonella enterica, ATCC10708, 1 min, BCT 60 s, in 25% EtOH
Method in brief: as §1

[3] = dose 0.4% w/v, read-out: Log reduction

`CC1=CCC(C(C)(C)O)CC1` (centres unmarked) [Terpineol Ord, 2-(4-Methylcyclohex-3-en-1-yl)propan-2-ol] was tested, and the log reduction at 0.25 % strength (C. xerosis ATCC 373; read-out: Log reduction) was 2.9, the log reduction at 0.3 % strength (C. xerosis ATCC 373; read-out: Log reduction) was 3.9 and the log reduction at 0.35 % strength (C. xerosis ATCC 373; dose 0.35% w/v, read-out: Log reduction) was 6. The log reduction at 0.4 % strength (C. xerosis ATCC 373; [3]) was 6.4, the log reduction at 0.1 % strength (S. haemolyticus 114126) was -0.1 and the log reduction at 0.2 % strength (S. haemolyticus 114126; dose 0.2% w/v) was 1.9. For the same compound, the log reduction at 0.25 % strength (S. haemolyticus 114126; dose 0.25% w/v, read-out: Log reduction) was 5.8, the log reduction at 0.3 % strength (S. haemolyticus 114126; dose 0.3% w/v, read-out: Log reduction) was 7.4 and the log reduction at 0.4 % strength (S. haemolyticus 114126; [3]) was 7.4. It also gave a log reduction at 0.125 % strength (S. aureus ATCC 6538; dose 0.125 % w/v) of 0.8, a log reduction at 0.15 % strength (S. aureus ATCC 6538; dose 0.150 % w/v, read-out: Log reduction) of 2.8 and a log reduction at 0.175 % strength (S. aureus ATCC 6538; dose 0.175 % w/v, read-out: Log reduction) of 4.8. The log reduction at 0.2 % strength (S. aureus ATCC 6538; dose 0.200 % w/v, read-out: Log reduction) was 6.2, the log reduction at 0.25 % strength (S. aureus ATCC 6538; dose 0.250 % w/v, read-out: Log reduction) was 7.3 and the log reduction at 0.125 % strength [1] was 4.4. It also gave a log reduction at 0.135 % strength ([1]; Dose 0.135 % w/v) of 4.3, a log reduction at 0.15 % strength ([1]; Dose 0.15 % w/v) of 6.6 and a log reduction at 0.2 % strength ([1]; Dose 0.2 % w/v, read-out: Log reduction) of 7.6. For the same compound, the log reduction at 0.1 % strength ([2]; Dose 0.1 % w/v, read-out: Log reduction) was 0.8, the log reduction at 0.1 % strength ([2]; Dose 0.10 % w/v, read-out: Log reduction) was 5.4 and the log reduction at 0.1375 % strength ([2]; Dose 0.1375 % w/v) was 7.7. For the same compound, the log reduction at 0.15 % strength ([2]; Dose 0.15 % w/v) was 7.7.
With `CCC(C)(O)CCCC(C)C` (centres unmarked) [Tetralinol, 3,7-Dimethyl-3-octanol] the log reduction at 0.05 % strength (C. xerosis ATCC 373; dose 0.05% w/v) was 0.1, the log reduction at 0.2 % strength (C. xerosis ATCC 373; dose 0.2% w/v, read-out: Log reduction) was 5.7 and the log reduction at 0.25 % strength (C. xerosis ATCC 373; read-out: Log reduction) was 6.4. It also gave a log reduction at 0.3 % strength (C. xerosis ATCC 373; read-out: Log reduction) of 6.5, a log reduction at 0.075 % strength (S. haemolyticus 114126; dose 0.075% w/v) of 1.2 and a log reduction at 0.1 % strength (S. haemolyticus 114126) of 5. For the same compound, the log reduction at 0.125 % strength (S. haemolyticus 114126; dose 0.125% w/v) was 7.3, the log reduction at 0.15 % strength (S. haemolyticus 114126; dose 0.15% w/v) was 7.1 and the log reduction at 0.0375 % strength (S. aureus ATCC 6538; dose 0.0375 % w/v) was 1.3. The log reduction at 0.05 % strength (S. aureus ATCC 6538; dose 0.050 % w/v) was 5.5, the log reduction at 0.075 % strength (S. aureus ATCC 6538; dose 0.075 % w/v) was 7.3 and the log reduction at 0.1 % strength (S. aureus ATCC 6538; dose 0.100 % w/v) was 7.5. It also gave a log reduction at 0.025 % strength ([1]; Dose 0.025 % w/v) of 1.2, a log reduction at 0.05 % strength ([1]; Dose 0.05 % w/v) of 3.2 and a log reduction at 0.075 % strength ([1]; Dose 0.075 % w/v) of 3.9. For the same compound, the log reduction at 0.1 % strength ([1]; Dose 0.1 % w/v) was 7.1, the log reduction at 0.125 % strength [1] was 7.1 and the log reduction at 0.04 % strength ([2]; Dose 0.04 % w/v) was 5.3. For the same compound, the log reduction at 0.05 % strength ([2]; Dose 0.05 % w/v, read-out: Log reduction) was 6.2.
